The text below walks through data of ChEMBL document CHEMBL5465560, “Selectivity Literature for EUbOPEN Chemogenomic Library” (2024).

For assay [1], the target named is Vascular endothelial growth factor receptor 2 (Homo sapiens, UniProt P35968). Nature of the assay: Selectivity interaction (Kinase panel (Z-LYTE Assay)) EUB0001632a KDR. The conditions noted are these: at 10 µM.
Assay [2] deals with T1, Rhodopsin kinase GRK1 (Homo sapiens) (UniProt Q15835).
T1 sequence (whole entry): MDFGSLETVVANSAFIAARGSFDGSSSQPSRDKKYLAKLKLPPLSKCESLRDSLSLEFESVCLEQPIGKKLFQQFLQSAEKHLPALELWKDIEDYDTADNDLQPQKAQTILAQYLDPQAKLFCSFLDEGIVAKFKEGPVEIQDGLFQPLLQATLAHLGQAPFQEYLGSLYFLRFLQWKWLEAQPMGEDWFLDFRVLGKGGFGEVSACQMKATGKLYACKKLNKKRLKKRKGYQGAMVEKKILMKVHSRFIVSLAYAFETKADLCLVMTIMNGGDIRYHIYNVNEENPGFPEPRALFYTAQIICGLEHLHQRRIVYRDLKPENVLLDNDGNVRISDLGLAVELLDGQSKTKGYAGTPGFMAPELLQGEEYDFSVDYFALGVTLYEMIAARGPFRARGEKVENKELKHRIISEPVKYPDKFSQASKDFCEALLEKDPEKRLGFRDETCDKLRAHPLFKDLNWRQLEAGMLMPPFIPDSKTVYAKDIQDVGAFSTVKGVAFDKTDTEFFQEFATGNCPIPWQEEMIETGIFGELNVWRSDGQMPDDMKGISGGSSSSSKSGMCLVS
Nature of the assay: Selectivity interaction (KinomeScan (DiscoverX)) EUB0000595a GRK1. The conditions noted are these: at 10 µM.

Assay [3] deals with Non-receptor tyrosine-protein kinase TYK2 (Homo sapiens, UniProt P29597). Briefly: Selectivity interaction (KinomeScan (DiscoverX)) EUB0000595a TYK2. The conditions noted are these: at 10 µM.
Non-receptor tyrosine-protein kinase TYK2, sequence (P29597 whole entry): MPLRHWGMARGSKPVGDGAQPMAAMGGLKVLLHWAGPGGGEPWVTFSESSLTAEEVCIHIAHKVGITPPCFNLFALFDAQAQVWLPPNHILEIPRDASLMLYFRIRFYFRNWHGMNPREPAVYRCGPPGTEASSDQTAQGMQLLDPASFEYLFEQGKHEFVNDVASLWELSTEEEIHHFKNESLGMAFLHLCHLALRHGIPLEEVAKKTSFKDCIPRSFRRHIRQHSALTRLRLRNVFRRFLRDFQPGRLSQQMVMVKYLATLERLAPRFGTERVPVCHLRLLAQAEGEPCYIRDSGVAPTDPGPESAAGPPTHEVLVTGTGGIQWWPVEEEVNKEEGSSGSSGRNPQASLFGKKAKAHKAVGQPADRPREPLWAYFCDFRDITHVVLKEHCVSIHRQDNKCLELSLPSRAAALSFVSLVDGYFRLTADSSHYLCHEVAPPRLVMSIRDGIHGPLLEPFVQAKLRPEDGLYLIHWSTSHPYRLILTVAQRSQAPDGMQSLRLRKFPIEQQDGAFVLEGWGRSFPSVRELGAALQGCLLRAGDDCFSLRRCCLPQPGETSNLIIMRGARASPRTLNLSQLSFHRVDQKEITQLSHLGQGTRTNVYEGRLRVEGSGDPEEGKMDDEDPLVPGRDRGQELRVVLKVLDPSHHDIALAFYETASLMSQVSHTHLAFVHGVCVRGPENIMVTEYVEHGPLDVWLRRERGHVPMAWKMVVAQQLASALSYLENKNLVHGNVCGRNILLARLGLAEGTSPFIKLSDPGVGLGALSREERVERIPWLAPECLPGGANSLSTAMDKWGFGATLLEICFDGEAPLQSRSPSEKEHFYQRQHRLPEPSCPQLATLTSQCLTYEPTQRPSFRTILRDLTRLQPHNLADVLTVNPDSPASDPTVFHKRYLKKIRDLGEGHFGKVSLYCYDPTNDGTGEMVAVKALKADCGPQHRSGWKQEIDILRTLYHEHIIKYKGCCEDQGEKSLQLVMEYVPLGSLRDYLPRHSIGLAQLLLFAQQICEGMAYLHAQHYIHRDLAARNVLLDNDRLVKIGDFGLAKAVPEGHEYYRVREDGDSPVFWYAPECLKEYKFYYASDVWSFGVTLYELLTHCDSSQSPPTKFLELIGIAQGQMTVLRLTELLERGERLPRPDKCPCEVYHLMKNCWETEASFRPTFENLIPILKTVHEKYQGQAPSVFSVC
The target in assay [4] is Mitogen-activated protein kinase kinase kinase kinase 1 (Homo sapiens) (UniProt Q92918). Nature of the assay: Selectivity interaction (ActivX KiNativ screen (ex vivo kinase selectivity in human PBMCs)) EUB0001619a MAP4K1. Format: cell-based. The conditions noted are these: PBMC, at 1 µM.
Assay [5] addresses Tyrosine-protein kinase ABL2 (Homo sapiens, UniProt P42684). Nature of the assay: Selectivity interaction (ActivX KiNativ screen (ex vivo kinase selectivity in human PBMCs)) EUB0001619a ABL2. The format is cell-based. The conditions noted are these: PBMC, at 1 µM.
Assay [6] concerns the target 5'-AMP-activated protein kinase catalytic subunit alpha-1 (Homo sapiens, UniProt Q13131). Briefly: Selectivity interaction (ActivX KiNativ screen (ex vivo kinase selectivity in human PBMCs)) EUB0001619a PRKAA1. Format: cell-based. The conditions noted are these: PBMC, at 1 µM.
In assay [7] the target is T2, Non-receptor tyrosine-protein kinase TNK1 (Homo sapiens) (UniProt Q13470).
T2 sequence (whole entry): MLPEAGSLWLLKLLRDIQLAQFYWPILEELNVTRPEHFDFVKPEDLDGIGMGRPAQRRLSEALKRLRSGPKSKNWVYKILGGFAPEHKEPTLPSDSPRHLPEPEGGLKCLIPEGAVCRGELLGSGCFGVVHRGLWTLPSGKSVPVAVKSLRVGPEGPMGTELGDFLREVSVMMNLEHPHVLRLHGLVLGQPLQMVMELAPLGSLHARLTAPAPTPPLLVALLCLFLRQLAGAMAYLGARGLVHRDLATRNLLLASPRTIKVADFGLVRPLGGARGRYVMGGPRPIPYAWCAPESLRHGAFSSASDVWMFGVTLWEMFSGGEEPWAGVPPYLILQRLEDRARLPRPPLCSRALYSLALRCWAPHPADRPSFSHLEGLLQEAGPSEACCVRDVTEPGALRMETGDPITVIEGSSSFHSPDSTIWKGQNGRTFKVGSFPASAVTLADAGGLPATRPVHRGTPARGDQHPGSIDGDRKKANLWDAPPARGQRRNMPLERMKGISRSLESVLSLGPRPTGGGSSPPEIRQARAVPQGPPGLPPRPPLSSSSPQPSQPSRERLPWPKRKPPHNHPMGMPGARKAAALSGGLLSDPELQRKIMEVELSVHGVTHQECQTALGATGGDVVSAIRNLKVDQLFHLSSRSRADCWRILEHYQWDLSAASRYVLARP
The conditions noted are these: at 10 µM.

In assay [8] the target is Mitogen-activated protein kinase kinase kinase 8 (Homo sapiens, UniProt P41279). Briefly: Selectivity interaction (SelectScreen profiling (Invitrogen)) EUB0000607a MAP3K8. The conditions noted are these: at 2 µM.
Assay [9] has as its target Mitogen-activated protein kinase kinase kinase kinase 5 (Homo sapiens) (UniProt Q9Y4K4). Briefly: Selectivity interaction (SelectScreen profiling (Invitrogen)) EUB0000607a MAP4K5. The conditions noted are these: at 2 µM.
Assay [10] addresses T3, Serine/threonine-protein kinase STK11 (Homo sapiens) (UniProt Q15831).
T3 sequence (whole entry): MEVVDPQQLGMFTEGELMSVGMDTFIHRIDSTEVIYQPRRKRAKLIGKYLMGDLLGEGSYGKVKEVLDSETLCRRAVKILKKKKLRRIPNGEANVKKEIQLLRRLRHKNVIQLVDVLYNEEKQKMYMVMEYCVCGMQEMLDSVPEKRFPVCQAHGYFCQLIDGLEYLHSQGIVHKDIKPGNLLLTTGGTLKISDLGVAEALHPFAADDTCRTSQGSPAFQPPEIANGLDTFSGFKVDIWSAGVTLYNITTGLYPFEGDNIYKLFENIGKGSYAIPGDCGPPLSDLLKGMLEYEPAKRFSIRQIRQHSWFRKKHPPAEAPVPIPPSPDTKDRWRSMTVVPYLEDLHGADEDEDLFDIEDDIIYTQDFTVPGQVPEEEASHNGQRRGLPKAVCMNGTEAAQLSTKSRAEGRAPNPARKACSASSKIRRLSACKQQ
Briefly: Selectivity interaction (Upstate Kinase Profiler service (Millipore)) EUB0000056c STK11. The conditions noted are these: at 1 µM.

Mitogen-activated protein kinase kinase kinase kinase 5 (Homo sapiens), sequence (Q9Y4K4 whole entry, looked up): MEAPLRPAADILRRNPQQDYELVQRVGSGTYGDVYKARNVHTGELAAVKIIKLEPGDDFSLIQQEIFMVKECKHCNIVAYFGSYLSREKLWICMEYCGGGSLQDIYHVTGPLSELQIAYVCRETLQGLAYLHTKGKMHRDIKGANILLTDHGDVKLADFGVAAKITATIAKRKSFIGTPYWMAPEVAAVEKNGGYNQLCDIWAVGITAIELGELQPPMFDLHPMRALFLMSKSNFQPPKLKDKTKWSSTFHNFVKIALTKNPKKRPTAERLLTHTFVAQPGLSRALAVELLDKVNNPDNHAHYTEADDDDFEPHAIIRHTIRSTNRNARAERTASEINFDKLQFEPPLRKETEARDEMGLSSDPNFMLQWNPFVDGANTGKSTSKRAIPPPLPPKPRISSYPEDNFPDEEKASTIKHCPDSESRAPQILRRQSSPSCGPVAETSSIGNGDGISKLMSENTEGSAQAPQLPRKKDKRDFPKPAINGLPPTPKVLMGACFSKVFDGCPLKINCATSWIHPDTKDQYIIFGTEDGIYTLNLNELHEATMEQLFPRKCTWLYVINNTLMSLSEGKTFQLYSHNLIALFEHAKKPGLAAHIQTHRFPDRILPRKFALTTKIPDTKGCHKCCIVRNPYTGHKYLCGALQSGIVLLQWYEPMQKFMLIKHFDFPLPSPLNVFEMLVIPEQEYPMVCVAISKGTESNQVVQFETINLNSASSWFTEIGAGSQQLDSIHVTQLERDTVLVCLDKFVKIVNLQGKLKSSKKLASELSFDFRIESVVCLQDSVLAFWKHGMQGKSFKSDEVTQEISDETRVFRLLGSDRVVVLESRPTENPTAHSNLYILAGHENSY
Tyrosine-protein kinase ABL2, sequence (P42684 whole entry): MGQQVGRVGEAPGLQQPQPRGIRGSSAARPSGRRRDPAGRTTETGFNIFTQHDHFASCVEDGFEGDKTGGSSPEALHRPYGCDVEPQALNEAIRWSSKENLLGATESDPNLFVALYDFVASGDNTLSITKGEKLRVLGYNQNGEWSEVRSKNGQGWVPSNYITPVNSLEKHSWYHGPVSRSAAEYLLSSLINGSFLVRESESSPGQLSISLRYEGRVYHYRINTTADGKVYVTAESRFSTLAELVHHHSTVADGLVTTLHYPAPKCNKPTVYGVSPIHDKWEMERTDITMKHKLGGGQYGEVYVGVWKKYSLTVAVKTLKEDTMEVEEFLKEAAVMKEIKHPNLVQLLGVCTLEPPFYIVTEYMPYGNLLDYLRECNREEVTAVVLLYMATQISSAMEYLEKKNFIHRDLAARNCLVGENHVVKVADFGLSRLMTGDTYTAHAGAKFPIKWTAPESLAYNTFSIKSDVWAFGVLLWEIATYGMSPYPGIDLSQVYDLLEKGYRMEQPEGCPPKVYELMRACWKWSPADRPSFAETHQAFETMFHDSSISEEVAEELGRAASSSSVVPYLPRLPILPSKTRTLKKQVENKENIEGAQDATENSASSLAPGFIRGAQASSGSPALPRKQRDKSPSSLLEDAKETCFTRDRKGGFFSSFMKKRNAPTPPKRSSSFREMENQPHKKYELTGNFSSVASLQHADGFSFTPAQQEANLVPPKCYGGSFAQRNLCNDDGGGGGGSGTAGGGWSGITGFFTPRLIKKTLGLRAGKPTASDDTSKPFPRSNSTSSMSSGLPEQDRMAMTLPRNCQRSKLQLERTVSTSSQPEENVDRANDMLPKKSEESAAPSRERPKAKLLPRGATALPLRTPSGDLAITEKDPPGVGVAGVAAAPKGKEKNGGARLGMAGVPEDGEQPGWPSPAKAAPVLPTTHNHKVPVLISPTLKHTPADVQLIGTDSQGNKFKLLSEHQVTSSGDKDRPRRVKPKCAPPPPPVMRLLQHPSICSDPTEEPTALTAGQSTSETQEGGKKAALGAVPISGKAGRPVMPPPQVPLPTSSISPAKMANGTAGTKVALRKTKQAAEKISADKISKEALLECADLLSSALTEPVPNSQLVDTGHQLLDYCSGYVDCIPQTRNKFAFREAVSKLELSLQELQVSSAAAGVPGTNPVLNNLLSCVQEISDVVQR
Vascular endothelial growth factor receptor 2, sequence (P35968 whole entry): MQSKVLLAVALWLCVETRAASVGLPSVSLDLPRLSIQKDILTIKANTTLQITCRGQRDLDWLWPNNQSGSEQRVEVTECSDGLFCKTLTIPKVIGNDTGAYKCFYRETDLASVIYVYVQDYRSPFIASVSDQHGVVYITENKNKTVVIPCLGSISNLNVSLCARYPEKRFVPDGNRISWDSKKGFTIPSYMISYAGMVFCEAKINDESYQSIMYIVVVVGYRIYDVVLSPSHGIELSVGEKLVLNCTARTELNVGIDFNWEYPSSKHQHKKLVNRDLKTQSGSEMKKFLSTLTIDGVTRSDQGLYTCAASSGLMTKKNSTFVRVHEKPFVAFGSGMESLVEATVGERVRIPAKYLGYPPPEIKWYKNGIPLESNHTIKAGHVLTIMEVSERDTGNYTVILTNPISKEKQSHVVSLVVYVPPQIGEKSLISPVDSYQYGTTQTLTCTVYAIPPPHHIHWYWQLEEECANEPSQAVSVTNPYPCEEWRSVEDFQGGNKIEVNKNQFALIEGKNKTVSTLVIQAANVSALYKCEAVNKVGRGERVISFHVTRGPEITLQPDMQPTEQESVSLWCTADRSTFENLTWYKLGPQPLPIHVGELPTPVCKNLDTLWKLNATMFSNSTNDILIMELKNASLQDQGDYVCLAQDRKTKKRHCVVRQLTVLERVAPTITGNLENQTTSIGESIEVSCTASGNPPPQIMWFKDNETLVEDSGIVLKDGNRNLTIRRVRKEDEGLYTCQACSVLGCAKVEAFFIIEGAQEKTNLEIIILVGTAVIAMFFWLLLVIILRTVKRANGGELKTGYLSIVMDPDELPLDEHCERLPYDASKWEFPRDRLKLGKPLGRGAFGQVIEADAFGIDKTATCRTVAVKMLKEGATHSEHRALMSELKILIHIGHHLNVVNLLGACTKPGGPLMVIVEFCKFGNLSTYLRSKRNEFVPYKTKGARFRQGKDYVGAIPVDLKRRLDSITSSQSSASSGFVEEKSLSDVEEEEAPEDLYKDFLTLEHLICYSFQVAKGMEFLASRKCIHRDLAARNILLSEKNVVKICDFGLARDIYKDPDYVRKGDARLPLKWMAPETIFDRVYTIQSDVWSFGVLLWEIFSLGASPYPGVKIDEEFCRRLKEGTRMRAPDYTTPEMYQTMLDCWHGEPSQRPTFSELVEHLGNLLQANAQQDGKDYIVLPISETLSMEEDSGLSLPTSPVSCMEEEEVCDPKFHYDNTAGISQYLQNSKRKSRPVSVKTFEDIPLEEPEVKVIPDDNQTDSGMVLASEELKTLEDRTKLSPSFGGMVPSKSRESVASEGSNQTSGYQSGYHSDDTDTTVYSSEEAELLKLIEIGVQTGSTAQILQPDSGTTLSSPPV
5'-AMP-activated protein kinase catalytic subunit alpha-1, sequence (Q13131 whole entry, looked up): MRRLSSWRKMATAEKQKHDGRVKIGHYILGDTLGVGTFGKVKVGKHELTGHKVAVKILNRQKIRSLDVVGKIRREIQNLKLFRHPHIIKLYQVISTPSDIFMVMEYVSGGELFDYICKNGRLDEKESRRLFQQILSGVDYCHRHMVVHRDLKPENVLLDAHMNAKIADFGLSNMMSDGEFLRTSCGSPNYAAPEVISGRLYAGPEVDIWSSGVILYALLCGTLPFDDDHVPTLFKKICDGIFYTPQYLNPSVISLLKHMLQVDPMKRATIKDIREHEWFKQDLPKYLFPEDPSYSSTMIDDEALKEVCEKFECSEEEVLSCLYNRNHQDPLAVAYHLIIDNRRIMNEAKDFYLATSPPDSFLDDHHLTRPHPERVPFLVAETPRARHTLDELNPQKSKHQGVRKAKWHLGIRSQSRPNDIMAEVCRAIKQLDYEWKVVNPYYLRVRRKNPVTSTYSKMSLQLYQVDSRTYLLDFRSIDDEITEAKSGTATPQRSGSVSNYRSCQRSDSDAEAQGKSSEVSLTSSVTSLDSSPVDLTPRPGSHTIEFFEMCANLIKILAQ

For `Cn1cc(-n2cnc3c(NCc4nc5cc(Cl)c(Cl)cc5[nH]4)nc(N4CCOCC4)nc32)cn1`, the % of control in assay [1] turned out to be 0.298%.

Regarding `COCC(=O)NC/C=C/c1ccc2ncnc(Nc3ccc(Oc4ccc(C)nc4)c(C)c3)c2c1` [CP-724714], the % of control in assay [2] worked out at 100%; in assay [3] it was 24%.

Turning to `N#Cc1cccc(-c2c[nH]c3ncnc(N4CCOCC4)c23)c1`, the % of inhibition is 6% in assay [4], -53% in assay [5] and 33% in assay [6].

Consider `CCN(CC)CCCCNc1ncc2cc(-c3cc(OC)cc(OC)c3)c(NC(=O)NC(C)(C)C)nc2n1`, for which, in assay [7], the % of control stood at 100%.

For `CNC(=O)Nc1ccc(-c2nc(N3CC4CCC(C3)O4)c3cnn(C4CCC5(CC4)OCCO5)c3n2)cc1`, the % of inhibition in assay [8] stood at 1%; in assay [9], 19%.

Turning to `Cc1ccc(-c2ccc3c(ccc4sc5c(c43)NC[C@@H](C)NC5=O)n2)cn1`, the % of inhibition in [10] was -15%.
